Patent publication US6528043B2, “Composition containing sapogenin” (L'Oreal, priority 1999, dated 2003)

Experiment: Maximum amount of diosgenin which can be dissolved at 50° C. (procedure repeated, varying the amount of diosgenin)
Assay type: physicochemical
Experimental: The above compositions were prepared in the following way. 100 mg of diosgenin were weighed out and placed in a hermetic pillbox, to which 4.9 g of the solvent(s) were added with magnetic stirring at 25° C. for not more than one hour. In the event that the diosgenin was not dissolved after one hour, the suspension was heated with stirring to 50° C. on a waterbath and then, in the absence of dissolution of the diosgenin after one hour at this temperature, the temperature of the suspension was raised to 70° C.
The above procedure was repeated, varying the amount of diosgenin placed in solution. It was thus shown that the maximum amount of diosgenin which can be dissolved at 50° C. in the mixture of solvents was 2%, whereas it was only 1% in each of the solvents taken individually.
The above procedure was repeated, varying the amount of diosgenin placed in solution. It was thus shown that the maximum amount of diosgenin which can be dissolved at 50° C. in the mixture of solvents was 4%, whereas it was only 1% in each of the solvents taken individually.
The above procedure was repeated, varying the amount of diosgenin placed in solution. It was thus shown that the maximum amount of diosgenin which can be dissolved at 50° C. in the mixture of solvents was 3%, whereas it was only 1% in each of the solvents taken individually.
The amount of diosgenin placed in solution was then varied. It was thus shown that the maximum amount of diosgenin which can be dissolved at 50° C. in the mixture of solvents was 3%, whereas it was only 1% in the ester and 2% in the UV screening agent.

## C[C@@H]1CC[C@@]2(OC1)O[C@H]1C[C@H]3[C@@H]4CC=C5C[C@@H](O)CC[C@]5(C)[C@H]4CC[C@]3(C)[C@H]1[C@@H]2C [diosgenin, spirost-5-en-3-beta-ol]
50/50 mixture of isononyl isononanoate and hexyldecanol
  maximum amount of diosgenin which can be dissolved: 3%
50/50 mixture of isononyl isononanoate and octyl methoxycinnamate
  maximum amount of diosgenin which can be dissolved: 3%
50/50 mixture of isopropyl myristate and hexyldecanol
  maximum amount of diosgenin which can be dissolved: 4%
50/50 mixture of triglyceryl triisostearate and hexyldecanol
  maximum amount of diosgenin which can be dissolved: 2%
Hexyldecanol taken individually
  maximum amount of diosgenin which can be dissolved: 1%
Isononyl isononanoate (ester) alone
  maximum amount of diosgenin which can be dissolved: 1%
Isopropyl myristate taken individually
  maximum amount of diosgenin which can be dissolved: 1%
Octyl methoxycinnamate (UV screening agent) alone
  maximum amount of diosgenin which can be dissolved: 2%
Triglyceryl triisostearate taken individually
  maximum amount of diosgenin which can be dissolved: 1%
